The values below come from patent US8557823B2, “Family of PFKFB3 inhibitors with anti-neoplastic activities” (Advanced Cancer Therapeutics, LLC, priority 2007, dated 2013).

Values after ≈ are worked out from the molar mass of the structure shown.

As a reminder, the IC50 is the concentration needed to halve the response being measured. Read a high IC50 as lower potency. Broadly, the solubility is the concentration that dissolves in the medium under given conditions. The low end stands for a poorly soluble substance, the high end for a readily soluble substance. Broadly, the inhibition is the relative decrease from the control value, in per cent. Lower therefore signals a response near the control.

For one data set, the system named is U87MG. Put plainly: MTT assay 48 hours, U87MG. In kind it is cell-based. Particulars: Homo sapiens, U-87 MG. How it is done:
(§1) The ability of the compounds described herein to kill or inhibit the proliferation of cancer cells was measured using either the MTT assay, the Alamar Blue assay, or the Cell Titer Glow® assay using 48 or 72 hours exposure. […] The procedures are briefly described below. Cells of the desired tumor cell line were plated at 2×10^5 cells/ml in 96 well plates. Twice the indicated concentrations of the compounds of the invention were added to cells the following day in an equal volume of media. 72 hours later, cells were lysed and subjected to ATP determination using the CellTiter Glo-Luminescent Cell Viability Assay kit (Promega, Madison, Wis.). Experiments were done in triplicate. When using the MTT assay or the Alamar blue assay, the experimental conditions are essentially similar; at the end of the incubation period, 20 microl of the MTT solution is added per well and the samples are incubated for an additional four hours, rinsed and the absorbance at 570 nm measured. Results for the inhibition of cells proliferation are reported as IC50 as commonly done (the concentration leading to a 50% inhibition of proliferation of the cell population) and are listed in the Tables below. Table 4 lists the IC50 for the compounds of the invention in several cell lines including Jurkat, Calu-6, NCI-H82, U937, or NCI-H1437 cancer cell lines. Table 5 lists the IC50 of PFK-070 in a panel of 10 cell lines.

A further data set concerns A549. The experiment in a line: MTT assay 48 hours, A549. Format: cell-based. Particulars: Homo sapiens. The protocol: as §1
A general note: Tetrazolium dyes change colour on reduction, which living cells bring about.

A short description of data set [1]: Microsomal stability in human liver microsomes. Format: in vitro ADME. The note with it: 0 min. The protocol: Microsomal stability in vitro in different biologic media (liver microsomes, S9 fraction, hepatocytes) and species is ascertained to evaluate the rate at which a compound undergoes metabolism in the experimental in vitro conditions. […] Experimental conditions are briefly described here: the stability in human liver microsomes of several compounds was done over […] at 37° C. using pooled mixed gender human liver microsomes. These liver microsomes were prepared at 1.0 mg/ml of microsomal protein in a 100 mM potassium phosphate pH 7.4 buffer with 1 mM NADPH. The media was incubated at 37° C. with the compound in solution in DMSO. The concentration of the compound was followed by LC/MS-MS as a function of time. […] Testosterone was used as a positive control. The same experiment was performed with mouse, rat or dog liver microsomes instead of human liver microsomes.

For another data set, the system named is U937. The experiment in a line: Cancer cell proliferation, Alamar Blue assay 72 hours, U937. The note with it: Homo sapiens, U-937. In kind it is cell-based. How it is done: as §1
A general note: Alamar Blue is a resazurin reagent that responds to reducing activity.

The next data set concerns SK-N-SH. Put plainly: MTT assay 48 hours, SK-N-SH. Format: cell-based. The note with it: Homo sapiens. The protocol:
as §1

Data set [2] in a line: Solubility in dosing solution Cre:EtOH:Saline. The note with it: Cremophor:EtOH:Saline 5:5:90, aqueous with cosolvent or surfactant or cyclodextrin, kinetic from dmso stock; 5:5:90 Cremophor:EtOH:Saline, after 24 hours at room temperature. In kind it is physicochemical. The text has this:
Chemical properties of the compounds of the invention were investigated, mainly the solubility in several solvents and pharmaceutically accepted excipients or dosing solutions and the stability of these solutions. […] The increase in solubility when comparing the effect of chemical substituents is unpredictable and surprising if one compares the solubility values of PFK-070 to PFK-091 and PFK-070 to PFK-141 and 145 in a dosing solution that could be used to treat cancer patients (See Table 8A below). Briefly, selected compounds of the invention are dissolved in a small volume of the solvents/excipients of interest (Cremophor, or Cremophor:etoh or Tween80:etoh) at room temperature and diluted 1:9 in saline and left at room temperature for over 8 or 24 hours. Both the physical (absence of a precipitate) and the chemical stability (less than 5% degradation) of the solutions are measured (observation and HPLC after filtration).

The next data set concerns NCI-H1437. Put plainly: Cancer cell proliferation, Alamar Blue assay 72 hours, NCI-H1437. In kind it is cell-based. Particulars: Homo sapiens. The protocol:
as §1

For another data set, the system named is Jurkat. The experiment in a line: Cancer cell proliferation, Alamar Blue assay 72 hours, Jurkat. In kind it is cell-based. The note with it: Homo sapiens, Jurkat, 72 h. How it is done:
as §1

Another data set deals with NCI-H82. Put plainly: Cancer cell proliferation, Alamar Blue assay 72 hours, NCI-H82. Format: cell-based. Particulars: Homo sapiens. How it is done:
as §1

The subject of another data set is BX-PC-3. The experiment in a line: MTT assay 48 hours, BX-PC-3. Particulars: Homo sapiens, BXPC-3, BX-PC-3, MTT assay. In kind it is cell-based. How it is done: as §1
The next data set has as its system Calu-6. Put plainly: Cancer cell proliferation, Alamar Blue assay 72 hours, Calu-6. In kind it is cell-based. The note with it: Homo sapiens. How it is done:
as §1

In a further data set the test system is MiaPaca. Put plainly: MTT assay 48 hours, MiaPaca. Format: cell-based. The note with it: Homo sapiens, MIA PaCa-2. The protocol:
as §1

The subject of another data set is BT474. The experiment in a line: MTT assay 48 hours, BT474. Format: cell-based. Particulars: Homo sapiens, BT-474. How it is done:
as §1

In another data set the test system is SK-BR-3. The experiment in a line: MTT assay 48 hours, SK-BR-3. Particulars: Homo sapiens, SK-BR-3, MTT assay. Format: cell-based. How it is done:
as §1

A further data set relates to LnCap. Put plainly: MTT assay 48 hours, LnCap. The note with it: Homo sapiens. In kind it is cell-based. How it is done:
as §1

For the next data set, the system named is CT26. Put plainly: MTT assay 48 hours, CT26. In kind it is cell-based, murine. The note with it: Mus musculus. How it is done:
as §1

A further data set deals with H22. Put plainly: MTT assay 48 hours, H22. Format: cell-based. The note with it: Mus musculus. The protocol:
as §1

A further data set concerns Jurkat cells. Put plainly: Inhibition of 2-deoxyglucose uptake, Example 14. Format: cell-based. Particulars: Homo sapiens, 3 hours. The protocol: Inhibition of PFKFB3 results in inhibiting glycolysis. Several feedback or feedforward activation and inhibition mechanisms exist so that, by a feedback mechanism, inhibiting the activity of PFKFB3 might inhibit glucose uptake by cells. An assay was developed to determine if there was inhibition of glucose uptake following exposure to the compounds on the invention. Briefly, Jurkat cells were plated at 1×10^5/mL in RPMI 1640 supplemented with 10% fetal bovine serum and 50 μg/mL gentamicin sulfate. Cells were immediately treated with vehicle or 0.5 μmol/L of the compound of the invention for 3 hours and subsequently placed in glucose-free RPMI 1640 for 30 min. ^14C-2-deoxyglucose (0.25 μCi/mL; Perkin Elmer) was added for an additional 60 min and cells were then washed three times with ice-cold RPMI 1640 containing no glucose. Cell lysates were collected in 500 μL of 0.1% SDS, and scintillation counts (counts/min) were measured on 400 μL of lysate. Counts were normalized to protein concentration.

For another data set, the system named is K562 leukemia cells. The experiment in a line: In vitro growth inhibition, K562. Particulars: 1, 3, 10, 33 μM. Format: cell-based, human. How it is done:
(§2) The K562, HL-60, MDA-MB231, and melanoma (CRL-11174) human cancer cell lines were purchased from ATCC (American Tissue Type Culture Collection, Manassas, Va., United States of America). HeLa, A549, Lewis Lung Carcinoma, MDA-MB231, and melanoma cells were grown in Dulbecco's Modified Eagle Medium (DMEM) (Hyclone, Logan, Utah, United States of America) supplemented with 10% fetal bovine serum (Hyclone, Logan, Utah, United States of America) and 50 μg/mL gentamicin sulfate (Invitrogen, Carlsbad, Calif., United States of America). The HL-60, K562, and Jurkat cell lines were grown in RPMI-1640 medium (Hyclone, Logan, Utah, United States of America) supplemented with 10% fetal bovine serum and 50 μg/mL gentamicin sulfate. […]
(§3) Cells were collected 48 hours post-treatment, and cell number and viability were determined by trypan blue exclusion. […]

For a further data set, the target named is PFKFB3 (Homo sapiens, UniProt Q16875). The experiment in a line: PFKFB3 enzyme-coupled kinetics assay (pyruvate kinase/lactate dehydrogenase, NADH consumption). The note with it: 150 μM.
Sequence of PFKFB3 (Q16875 whole entry): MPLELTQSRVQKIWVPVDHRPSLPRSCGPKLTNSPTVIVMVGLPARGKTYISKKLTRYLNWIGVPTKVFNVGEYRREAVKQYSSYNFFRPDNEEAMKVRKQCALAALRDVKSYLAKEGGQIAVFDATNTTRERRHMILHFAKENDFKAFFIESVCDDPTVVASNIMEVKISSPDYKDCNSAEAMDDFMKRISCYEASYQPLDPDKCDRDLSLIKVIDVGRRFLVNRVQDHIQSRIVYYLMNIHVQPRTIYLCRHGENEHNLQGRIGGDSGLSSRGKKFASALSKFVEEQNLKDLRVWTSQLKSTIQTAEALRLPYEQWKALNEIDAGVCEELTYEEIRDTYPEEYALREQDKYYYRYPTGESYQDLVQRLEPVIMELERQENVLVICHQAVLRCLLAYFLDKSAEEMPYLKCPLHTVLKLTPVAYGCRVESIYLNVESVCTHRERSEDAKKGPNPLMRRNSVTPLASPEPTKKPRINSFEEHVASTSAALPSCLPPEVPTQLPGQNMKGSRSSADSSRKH
A further data set has as its system HL-60 leukemia cells. Put plainly: In vitro growth inhibition, HL-60. In kind it is cell-based, human. Particulars: 1, 3, 10, 33 μM. How it is done:
as §2, §3

The next data set concerns glycolysis. The note with it: cited from earlier work.

Experimental for PFKFB3: PFKFB3 activity was measured by an enzyme-coupled kinetics assay incorporating pyruvate kinase and lactate dehydrogenase as previously described. […] The assay measures NADH consumption spectrophotometrically as a loss of absorption at 340 nm with stoichiometry of 1 mol ATP: 1 mol NADH consumed. Assays were carried out in 96 well plates at 37° in 200 μL final volume containing 1XPFKFB3 reaction buffer (100 mM Tris-HCl, 100 μM EDTA, 5 mM KH2PO4; pH=7.4), 420 μM phophoenolpyruvate (PEP), 5 mM ATP, 400 μM NADH, 613 units of pyruvate kinase (PK), 1092 units of lactate dehydrogenase (LDH), increasing concentrations of fructose-6-phosphate (40-400 μM), and 15 μg of purified PFKFB3. […] Assays were measured using a BioTek POWERWAVE™ plate reader (BioTek Instruments, Inc., Winooski, Vt., United States of America) in kinetics mode over 15 minute periods to determine kinetic rate of PFKFB3. The enzyme kinetics module for SigmaPlot® 9.0 (SYSTAT Software, Inc., San Jose, Calif., United States of America) was used to calculate the kinetic parameters for PFKFB3 and 1 inhibition (Vmax, Km, and Ki). The Vmax is expressed in specific activity of PFKFB3 as nmol F6P×min^−1×mg^−1. […] The data represented are the mean±STD from triplicate measurements from two independent experiments.

With `O=C(/C=C/c1ccc2cccc(O)c2n1)c1ccncc1` [ACT-PFK-070, 3-(8-Hydroxy-quinolin-2-yl)-1-pyridin-4-yl-propenone], the IC50 is 1.68 µM with U87MG; 2.69 µM in the data set with A549; 3.6 µM in the data set on U937; 1.46 µM in the data set with SK-N-SH; 29.3 µM in the data set on NCI-H1437; 1.3 µM in the data set on Jurkat. Further, the IC50 in the data set with NCI-H82 came out at 4 µM; in the data set on BX-PC-3 it was 1.18 µM; with Calu-6, 7.4 µM; with MiaPaca, 0.275 µM; with BT474, 0.952 µM; in the data set on SK-BR-3, 1.6 µM. The IC50 came out at 1.28 µM with LnCap, 2.06 µM in the data set on CT26 and 3.95 µM in the data set on H22. In addition, the “Mean metabolized (%)” value in data set [1] stood at 0%. This molecule gave a solubility at 24 h in data set [2] of 100 µg/mL (≈ 362 µM). Also, at 0.5 µM the inhibition in the data set on Jurkat cells was 45%.
As for `O=C(/C=C/c1ccc(Cl)cc1)c1cccnc1` [Compound 2, 3-(4-chlorophenyl)-1-(3-pyridinyl)-2-propen-1-one], the cellular toxicity result in the data set with K562 leukemia cells is recorded as “dose-dependent cellular toxicity”. At PFKFB3, the “kinetic rate of PFKFB3 reduced compared to vehicle (EtOH)” value is listed as 39.8% and the “kinetic rate of recombinant PFKFB3 as % of that with vehicle (EtOH)” value is given as 39.8%. The cellular toxicity result in the data set with HL-60 leukemia cells is “dose-dependent cellular toxicity”.
With `NC(=O)c1ccc(C(=O)/C=C/c2ccc3ccccc3n2)cc1` [ACT-PFK-091, 4-(3-Quinolin-2-yl-acryloyl)-benzamide], the “Mean metabolized (%)” value in [1] is given as 0%. Moreover, the IC50 was determined as 0.4 µM in the data set with U937; 4.2 µM in the data set on NCI-H1437; 0.6 µM with Jurkat; 0.7 µM in the data set on NCI-H82; 0.2 µM in the data set on Calu-6. The amount in solution in data set [2] (solubility at 24 h) came to 200 µg/mL (≈ 662 µM). For the same molecule, the inhibition at 0.5 µM with Jurkat cells stood at 11%.
With `O=CC[C@@H](O)[C@H](O)[C@H](O)CO` [Compound 2-DG, 2-deoxyglucose], in the data set on glycolysis, the “effective concentration of other inhibitors of glycolysis” value is “low mM”.
`O=C(/C=C/c1ccc2ccccc2n1)c1ccccc1` [ACT-PFK-076, 1-Phenyl-3-quinolin-2-yl-propenone]: the IC50 with U937 is 2.5 µM; in the data set on Jurkat, 6.4 µM; in the data set on NCI-H82, 4 µM; with Calu-6, 3.3 µM. The inhibition at 0.5 µM in the data set on Jurkat cells was 27%.
For `O=C(/C=C/c1ccc2ccccc2n1)c1ccccn1` [ACT-PFK-085, 1-Pyridin-2-yl-3-quinolin-2-yl-propenone] the same measures were 2.9 µM, 4.9 µM, 2.7 µM, 6.9 µM and 31%.
